The nature of the data set: Rcp of ^99mTc-HMPAO after addition of a single stabiliser, two step process (Example 1). The class given is physicochemical. The settings on record: additive added 2 minutes post-radiolabelling; amount as in table; n = 3 (*n = 1). The method, then: To each of ten vials each containing 0.5 mg of HMPAO and 4.0 μg of Sn^2+ (stannous), was added sodium pertechnetate (1.48 GBq in 5 ml of saline) to carry out the radiolabelling. To each of 9 of the ten reconstituted vials was individually added the compound shown in Table 1 at a time of 2 minutes post-radiolabelling. Nothing was added to the remaining vial. At 1 minute and 3 hours after the addition, an aliquot was taken from each vial and the Rcp measured by a combination of three chromatographic systems (stationary phase/developing solvent: silica gel/methyl ethyl ketone, silica gel/saline, filter paper/50% aqueous acetonitrile).
Regarding `Nc1ccc(C(=O)O)cc1` [4-Aminobenzoic acid, 4-aminobenzoic acid], the “Rcp 1 min from addition (%)” value is 80 ± 8% and the “Rcp 3 hours from addition (%)” value was 67 ± 5%.
For `O=C1O[C@H]([C@@H](O)CO)C(O)=C1O` [Ascorbic acid] the same measures were 83* % and 41* %.
In the same order, the values of `[Cl][Co][Cl]` [Cobalt chloride] are 94 ± 3% and 89 ± 2%.
For `O=C(NCCO)c1cc(O)ccc1O` [Gentisic acid ethanolamide] the same measures were 61 ± 3% and 29 ± 13%.
For `O=C(O)c1cc(O)ccc1O` [Gentisic acid], the “Rcp 1 min from addition (%)” value was 87 ± 2% and the “Rcp 3 hours from addition (%)” value was determined as 77 ± 3%.
With `O=P(O)(O)CP(=O)(O)O` [Methylene diphosphonic acid, methylenediphosphonic acid], the “Rcp 1 min from addition (%)” value is recorded as 79* % and the “Rcp 3 hours from addition (%)” value was 30* %.
For the compound `Nc1ccc(C(=O)[O-])cc1.[Na+]` [Sodium4-amino-benzoate, sodium 4-aminobenzoate], the “Rcp 1 min from addition (%)” value was determined as 69 ± 5% and the “Rcp 3 hours from addition (%)” value was determined as 39 ± 11%.
With `O=C1O[C@H]([C@@H](O)CO)C([O-])=C1O.[Na+]` [Sodium ascorbate], the “Rcp 1 min from addition (%)” value was 90* % and the “Rcp 3 hours from addition (%)” value is 51* %.
As to `O=C(O)CCC(=O)O` [Succinic acid], the “Rcp 1 min from addition (%)” value was 51* % and the “Rcp 3 hours from addition (%)” value was 14* %.

Source of the values: patent publication US7914768B2, “Stabiliser for radiopharmaceuticals” (GE Healthcare Limited, priority 2000, dated 2011).
